Source: ChEMBL document CHEMBL5029185, “Discovery of Novel Polycyclic Heterocyclic Derivatives from Evodiamine for the Potential Treatment of Triple-Negative Breast Cancer” (J Med Chem, 2021)
Calls of active or inactive are those of the source. No cut-off for these calls is given here.

Columns and labels:
MDA-MB-231 [1] = assay: Antiproliferative activity against human MDA-MB-231 cells assessed as inhibition rate at 100 uM incubated for 72 hrs by MTT assay; assay type: functional
MDA-MB-231 [2] = assay: Antiproliferative activity against human MDA-MB-231 cells assessed as inhibition rate at 1 uM incubated for 72 hrs by MTT assay; assay type: functional
MDA-MB-231 [3] = assay: Antiproliferative activity against human MDA-MB-231 cells assessed as inhibition rate at 10 uM incubated for 72 hrs by MTT assay; assay type: functional
MCF7 = assay: Antiproliferative activity against human MCF7 cells assessed as inhibition rate incubated for 72 hrs by MTT assay; assay type: functional, cell-based; details: MCF7, 72 h
H22 = assay: Antiproliferative activity against mouse H22 cells assessed as inhibition rate incubated for 72 hrs by MTT assay; assay type: functional, cell-based; details: H22, 72 h
HepG2 = assay: Antiproliferative activity against human HepG2 cells assessed as inhibition rate incubated for 72 hrs by MTT assay; assay type: functional, cell-based; details: HepG2, 72 h
[4] = Ratio of IC50 for antiproliferative activity against human MDA-MB-231 cells transfected with siRNA-Top1 to IC50 for antiproliferative activity against human MDA-MB-231 cells transfected with siRNA-Ctrl assessed as cell viability by MTT assay; assay type: functional
MDA-MB-231 [5] = assay: Antiproliferative activity against human MDA-MB-231 cells assessed as inhibition rate incubated for 72 hrs by MTT assay; assay type: functional, cell-based; details: MDA-MB-231, 72 h
A549 = assay: Antiproliferative activity against human A549 cells assessed as inhibition rate incubated for 72 hrs by MTT assay; assay type: functional, cell-based; details: A549, 72 h
4T1 = assay: Antiproliferative activity against mouse 4T1 cells assessed as inhibition rate incubated for 72 hrs by MTT assay; assay type: functional, cell-based; details: 4T1, 72 h
MDA-MB-231 [6] = assay: Antiproliferative activity against human MDA-MB-231 cells transfected with siRNA-Top1 assessed as cell viability by MTT assay; assay type: functional, cell-based
MDA-MB-435 = assay: Antiproliferative activity against human MDA-MB-435 cells assessed as inhibition rate incubated for 72 hrs by MTT assay; assay type: functional, cell-based; details: MDA-MB-435, 72 h
MCF-10A = assay: cells; assay type: ADME, cell-based; details: Homo sapiens, 72 h
Description: Antiproliferative activity against human MCF-10A cells assessed as inhibition rate incubated for 72 hrs by MTT assay

LoVo = assay: Antiproliferative activity against human LoVo cells assessed as inhibition rate incubated for 72 hrs by MTT assay; assay type: functional, cell-based
[7] = molecular target: T1, DNA topoisomerase 1 (Homo sapiens) (UniProt P11387); assay: Induction of topoisomerase 1-DNA cleavable complex in human MDA-MB-231 cells assessed as increase in cleavable complex by measuring SDS-K+ precipitable complex at 15 uM measured up to 15 hrs by liquid scintillation counting analysis; assay type: cell-based; details: time hrs <=15
T1 sequence (whole entry): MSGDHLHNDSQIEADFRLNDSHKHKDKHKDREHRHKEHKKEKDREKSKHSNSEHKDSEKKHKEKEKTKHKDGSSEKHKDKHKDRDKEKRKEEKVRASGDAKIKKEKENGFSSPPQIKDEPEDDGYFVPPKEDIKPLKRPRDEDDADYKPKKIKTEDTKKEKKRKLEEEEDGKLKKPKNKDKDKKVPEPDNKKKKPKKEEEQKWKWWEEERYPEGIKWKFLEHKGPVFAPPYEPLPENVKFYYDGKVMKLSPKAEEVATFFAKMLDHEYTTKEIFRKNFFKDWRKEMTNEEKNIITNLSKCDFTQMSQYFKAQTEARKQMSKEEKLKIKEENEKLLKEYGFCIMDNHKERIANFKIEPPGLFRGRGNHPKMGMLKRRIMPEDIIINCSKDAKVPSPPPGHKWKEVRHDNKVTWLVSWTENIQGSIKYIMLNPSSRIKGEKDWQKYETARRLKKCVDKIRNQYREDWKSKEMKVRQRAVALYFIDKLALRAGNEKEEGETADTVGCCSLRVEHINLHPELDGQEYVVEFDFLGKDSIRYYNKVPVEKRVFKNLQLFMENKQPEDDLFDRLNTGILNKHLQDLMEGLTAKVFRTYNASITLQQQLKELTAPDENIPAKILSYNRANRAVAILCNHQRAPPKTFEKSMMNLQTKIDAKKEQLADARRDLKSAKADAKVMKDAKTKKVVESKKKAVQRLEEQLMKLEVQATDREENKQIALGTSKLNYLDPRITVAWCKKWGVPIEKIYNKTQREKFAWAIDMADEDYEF

[8] = Selectivity index, ratio of IC50 for human MCF-10A cells to IC50 for human MDA-MB-231 cells
MDA-MB-231 [9] = assay: Antiproliferative activity against human MDA-MB-231 cells transfected with siRNA-Ctrl assessed as cell viability by MTT assay; assay type: functional, cell-based
HCT-116 = assay: Antiproliferative activity against human HCT-116 cells assessed as inhibition rate incubated for 72 hrs by MTT assay; assay type: functional, cell-based; details: HCT-116, 72 h
HEK293 = assay: cells; assay type: ADME, cell-based; details: Homo sapiens, HEK293, 72 h
Description: Antiproliferative activity against HEK293 cells assessed as inhibition rate incubated for 72 hrs by MTT assay

[10] = molecular target: T1, DNA topoisomerase 1 (Homo sapiens); assay: Inhibition of topoisomerase 1 (unknown origin) assessed as relaxation of supercoiled plasmid pBR322 DNA upto 500 uM incubated for 15 mins by agarose gel electrophoresis; details: dose microM <=500, time 15.0 min

COC(=O)c1ccc2[nH]c3c(c2c1)CCN1C(=O)c2ccccc2OC31 (centres undefined)
inhibition at 100 µM (MDA-MB-231 [1]): 45.2% | inhibition at 1 µM (MDA-MB-231 [2]): 12.6% | inhibition at 10 µM (MDA-MB-231 [3]): 15.7%

COc1ccc2oc3c(c2c1)CCN1C(=O)c2cccc(C)c2OC31 (centres undefined)
inhibition at 100 µM (MDA-MB-231 [1]): 15% | inhibition at 1 µM (MDA-MB-231 [2]): 7.1% | inhibition at 10 µM (MDA-MB-231 [3]): 11.9%

CC[C@@]1(O)C(=O)OCc2c1cc1n(c2=O)Cc2cc3ccccc3nc2-1 [CAMPTOTHECIN]
IC50 (MCF7): 560 nM | IC50 (H22): 540 nM | IC50 (HepG2): 110 nM | Ratio IC50 [4]: 24 | IC50 (MDA-MB-231 [5]): 420 nM | IC50 (A549): 0.1 µM | IC50 (4T1): 170 nM | IC50 (MDA-MB-231 [6]): > 6.4 µM | IC50 (MDA-MB-435): 310 nM | IC50 (MCF-10A): 2190 nM | IC50 (LoVo): 1540 nM | Activity [7]: Active | selectivity ratio [8]: 5.2 | IC50 (MDA-MB-231 [9]): 264 nM

CN1c2ccccc2C(=O)N2CCc3c([nH]c4ccccc34)C21 (centres undefined)
IC50 (HCT-116): 32.7 µM | inhibition at 100 µM (MDA-MB-231 [1]): 73.3% | IC50 (MDA-MB-231 [5]): 13300 nM | inhibition at 1 µM (MDA-MB-231 [2]): 38.9% | IC50 (A549): 77.2 µM | IC50 (HEK293): > 100 µM | IC50 (MDA-MB-435): 6300 nM | IC50 (MCF-10A): > 100000 nM | inhibition at 10 µM (MDA-MB-231 [3]): 53.3% | selectivity ratio ([8]; MCF-10A cells versus MDA-MB-231 cells): > 10.7

COc1ccc2oc3c(c2c1)CCN1C(=O)c2cc(Br)ccc2OC31 (centres undefined)
inhibition at 100 µM (MDA-MB-231 [1]): 13% | inhibition at 1 µM (MDA-MB-231 [2]): 6.8% | inhibition at 10 µM (MDA-MB-231 [3]): 9.2%

Cc1cccc2c1OC1c3oc4ccc(O)cc4c3CCN1C2=O (centres undefined)
IC50 (HCT-116): 3.45 µM | inhibition at 100 µM (MDA-MB-231 [1]): 97.4% | Activity [10]: inactive | IC50 (MDA-MB-231 [5]): 2520 nM | inhibition at 1 µM (MDA-MB-231 [2]): 60.6% | IC50 (A549): 6.79 µM | IC50 (MDA-MB-435): 1950 nM | inhibition at 10 µM (MDA-MB-231 [3]): 66.5%

O=C(O)c1ccc2[nH]c3c(c2c1)CCN1C(=O)c2ccccc2OC31 (centres undefined)
inhibition at 100 µM (MDA-MB-231 [1]): 39.6% | inhibition at 1 µM (MDA-MB-231 [2]): 9.7% | inhibition at 10 µM (MDA-MB-231 [3]): 11.2%

COc1ccc2oc3c(c2c1)CCN1C(=O)c2cc(Cl)ccc2OC31 (centres undefined)
inhibition at 100 µM (MDA-MB-231 [1]): 15.9% | inhibition at 1 µM (MDA-MB-231 [2]): 2.3% | inhibition at 10 µM (MDA-MB-231 [3]): 7.3%

O=C1c2cc(Br)ccc2OC2c3oc4ccc(O)cc4c3CCN12 (centres undefined)
IC50 (HCT-116): 1.71 µM | inhibition at 100 µM (MDA-MB-231 [1]): 94.5% | Activity [10]: inactive | IC50 (MDA-MB-231 [5]): 1160 nM | inhibition at 1 µM (MDA-MB-231 [2]): 75.7% | IC50 (A549): 4.14 µM | IC50 (MDA-MB-435): 810 nM | inhibition at 10 µM (MDA-MB-231 [3]): 83.1%

COc1ccc2oc3c(c2c1)CCN1C(=O)c2ccc(C)cc2OC31 (centres undefined)
inhibition at 100 µM (MDA-MB-231 [1]): 41.5% | inhibition at 1 µM (MDA-MB-231 [2]): 7.5% | inhibition at 10 µM (MDA-MB-231 [3]): 19.2%

O=C1c2cc(Cl)cc(Cl)c2OC2c3oc4ccc(O)cc4c3CCN12 (centres undefined)
IC50 (HCT-116): 6.09 µM | inhibition at 100 µM (MDA-MB-231 [1]): 96.9% | Activity [10]: inactive | IC50 (MDA-MB-231 [5]): 3730 nM | inhibition at 1 µM (MDA-MB-231 [2]): 32.7% | IC50 (A549): 7.58 µM | IC50 (MDA-MB-435): 2330 nM | inhibition at 10 µM (MDA-MB-231 [3]): 59.5%

Cc1ccc2c(c1)OC1c3oc4ccc(O)cc4c3CCN1C2=O (centres undefined)
IC50 (HCT-116): 4.71 µM | inhibition at 100 µM (MDA-MB-231 [1]): 94% | Activity [10]: inactive | IC50 (MDA-MB-231 [5]): 1050 nM | inhibition at 1 µM (MDA-MB-231 [2]): 62.7% | IC50 (A549): 10.5 µM | IC50 (MDA-MB-435): 1140 nM | inhibition at 10 µM (MDA-MB-231 [3]): 64.8%

COc1ccc2oc3c(c2c1)CCN1C(=O)c2ccccc2OC31 (centres undefined)
inhibition at 100 µM (MDA-MB-231 [1]): 36.6% | inhibition at 1 µM (MDA-MB-231 [2]): 6% | inhibition at 10 µM (MDA-MB-231 [3]): 10.6%

O=C1c2ccccc2OC2c3oc4ccc(O)cc4c3CCN12 (centres undefined)
IC50 (HCT-116): 1.26 µM | inhibition at 100 µM (MDA-MB-231 [1]): 96.5% | Activity [10]: inactive | IC50 (MDA-MB-231 [5]): 860 nM | inhibition at 1 µM (MDA-MB-231 [2]): 55.1% | IC50 (A549): 4.28 µM | IC50 (MDA-MB-435): 470 nM | inhibition at 10 µM (MDA-MB-231 [3]): 61.2%

COc1ccc2oc3c(c2c1)CCN1C(=O)c2cc(Cl)cc(Cl)c2OC31 (centres undefined)
inhibition at 100 µM (MDA-MB-231 [1]): 12.1% | inhibition at 1 µM (MDA-MB-231 [2]): 8.6% | inhibition at 10 µM (MDA-MB-231 [3]): 5.5%

COc1ccc2nc3c(cc2c1)CN1C(=O)c2ccccc2N(C)C31 (centres undefined)
inhibition at 100 µM (MDA-MB-231 [1]): 80.7% | inhibition at 1 µM (MDA-MB-231 [2]): 7.6% | inhibition at 10 µM (MDA-MB-231 [3]): 11.9%

CN1c2ccccc2C(=O)N2Cc3cc4cc(O)ccc4nc3C21 (centres undefined)
inhibition at 100 µM (MDA-MB-231 [1]): 89.9% | inhibition at 1 µM (MDA-MB-231 [2]): 6.3% | inhibition at 10 µM (MDA-MB-231 [3]): 19.8%
